According to PubChem BioAssay (NCI):
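Interpolation was linear, between the two tested concentrations surrounding the appropriate level; five concentrations were tested over 48 hours in 96-well plates. At the TGI there is no net growth.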

Key:
Test in all cases: growth of human tumour cells (NCI), 48 h
CCRF-CEM leukemia = tested on: CCRF-CEM leukemia
HCC-2998 colon = tested on: HCC-2998 colon
NCI-H23 lung = tested on: NCI-H23 lung
UO-31 renal = tested on: UO-31 renal
MALME-3M melanoma = tested on: MALME-3M melanoma
SF-539 CNS = tested on: SF-539 CNS
OVCAR-4 ovarian = tested on: OVCAR-4 ovarian
U251 CNS = tested on: U251 CNS
HCT-15 colon = tested on: HCT-15 colon
SW-620 colon = tested on: SW-620 colon
UACC-62 melanoma = tested on: UACC-62 melanoma
SNB-19 CNS = tested on: SNB-19 CNS
DLD-1 colon = tested on: DLD-1 colon
HCT-116 colon = tested on: HCT-116 colon
NCI-H522 lung = tested on: NCI-H522 lung
SNB-78 CNS = tested on: SNB-78 CNS
OVCAR-5 ovarian = tested on: OVCAR-5 ovarian
NCI-H460 lung = tested on: NCI-H460 lung
A549 NSCLC = tested on: A549 NSCLC
RPMI-8226 leukemia = tested on: RPMI-8226 leukemia
LOX IMVI melanoma = tested on: LOX IMVI melanoma
OVCAR-8 ovarian = tested on: OVCAR-8 ovarian
XF 498 CNS = tested on: XF 498 CNS
K-562 leukemia = tested on: K-562 leukemia
KM20L2 colon = tested on: KM20L2 colon
SN12C renal = tested on: SN12C renal
RXF 393 renal = tested on: RXF 393 renal
SK-MEL-5 melanoma = tested on: SK-MEL-5 melanoma
M19-MEL melanoma = tested on: M19-MEL melanoma
UACC-257 melanoma = tested on: UACC-257 melanoma
HL-60(TB) leukemia = tested on: HL-60(TB) leukemia
CAKI-1 renal = tested on: CAKI-1 renal
HOP-62 NSCLC = tested on: HOP-62 NSCLC
IGROV1 ovarian = tested on: IGROV1 ovarian
SK-OV-3 ovarian = tested on: SK-OV-3 ovarian
NCI-H226 lung = tested on: NCI-H226 lung
SF-295 CNS = tested on: SF-295 CNS
DMS 114 small cell lung = tested on: DMS 114 small cell lung
HT29 colon = tested on: HT29 colon
MOLT-4 leukemia = tested on: MOLT-4 leukemia
LXFL 529 NSCLC = tested on: LXFL 529 NSCLC
OVCAR-3 ovarian = tested on: OVCAR-3 ovarian
SR leukemia = tested on: SR leukemia
COLO 205 colon = tested on: COLO 205 colon
M14 melanoma = tested on: M14 melanoma
TK-10 renal = tested on: TK-10 renal
DMS 273 small cell lung = tested on: DMS 273 small cell lung
KM12 colon = tested on: KM12 colon
HOP-92 NSCLC = tested on: HOP-92 NSCLC
EKVX NSCLC = tested on: EKVX NSCLC
786-0 renal = tested on: 786-0 renal
SNB-75 CNS = tested on: SNB-75 CNS
A498 renal = tested on: A498 renal
SF-268 CNS = tested on: SF-268 CNS
RXF-631 renal = tested on: RXF-631 renal
ACHN renal = tested on: ACHN renal
MDA-MB-231 breast = tested on: MDA-MB-231 breast
HS 578T breast = tested on: HS 578T breast
BT-549 breast = tested on: BT-549 breast
DU-145 prostate = tested on: DU-145 prostate
SK-MEL-2 melanoma = tested on: SK-MEL-2 melanoma
T-47D breast = tested on: T-47D breast
HOP-18 NSCLC = tested on: HOP-18 NSCLC
SK-MEL-28 melanoma = tested on: SK-MEL-28 melanoma
MCF7 breast = tested on: MCF7 breast
PC-3 prostate = tested on: PC-3 prostate
MDA-MB-435 = tested on: MDA-MB-435
MDA-N = tested on: MDA-N
NCI/ADR-RES ovarian = tested on: NCI/ADR-RES ovarian

SMILES: N#CC(C#N)=C(C(C#N)C#N)C(C#N)C#N
- TGI (CCRF-CEM leukemia): > 100 µM
- TGI (HCC-2998 colon): > 100 µM
- TGI (NCI-H23 lung): > 100 µM
- TGI (UO-31 renal): > 100 µM
- TGI (MALME-3M melanoma): > 100 µM
- TGI (SF-539 CNS): > 100 µM
- TGI (OVCAR-4 ovarian): > 100 µM
- TGI (U251 CNS): > 100 µM
- TGI (HCT-15 colon): > 100 µM
- TGI (SW-620 colon): > 100 µM
- TGI (UACC-62 melanoma): > 100 µM
- TGI (SNB-19 CNS): > 100 µM
- TGI (DLD-1 colon): > 100 µM
- TGI (HCT-116 colon): > 100 µM
- TGI (NCI-H522 lung): > 100 µM
- TGI (SNB-78 CNS): > 100 µM
- TGI (OVCAR-5 ovarian): > 100 µM
- TGI (NCI-H460 lung): > 100 µM
- TGI (A549 NSCLC): > 100 µM
- TGI (RPMI-8226 leukemia): > 100 µM
- TGI (LOX IMVI melanoma): > 100 µM
- TGI (OVCAR-8 ovarian): > 100 µM
- TGI (XF 498 CNS): > 100 µM
- TGI (K-562 leukemia): > 100 µM
- TGI (KM20L2 colon): > 100 µM
- TGI (SN12C renal): > 100 µM
- TGI (RXF 393 renal): > 100 µM
- TGI (SK-MEL-5 melanoma): > 100 µM
- TGI (M19-MEL melanoma): > 100 µM
- TGI (UACC-257 melanoma): > 100 µM
- TGI (HL-60(TB) leukemia): > 100 µM
- TGI (CAKI-1 renal): > 100 µM
- TGI (HOP-62 NSCLC): > 100 µM
- TGI (IGROV1 ovarian): > 100 µM
- TGI (SK-OV-3 ovarian): > 100 µM
- TGI (NCI-H226 lung): > 100 µM
- TGI (SF-295 CNS): > 100 µM
- TGI (DMS 114 small cell lung): > 100 µM
- TGI (HT29 colon): > 100 µM
- TGI (MOLT-4 leukemia): > 100 µM
- TGI (LXFL 529 NSCLC): > 100 µM
- TGI (OVCAR-3 ovarian): > 100 µM
- TGI (SR leukemia): > 100 µM
- TGI (COLO 205 colon): > 100 µM
- TGI (M14 melanoma): > 100 µM
- TGI (TK-10 renal): > 100 µM
- TGI (DMS 273 small cell lung): > 100 µM
- TGI (KM12 colon): > 100 µM
- TGI (HOP-92 NSCLC): > 100 µM
- TGI (EKVX NSCLC): > 100 µM
- TGI (786-0 renal): > 100 µM
- TGI (SNB-75 CNS): > 100 µM
- TGI (A498 renal): > 100 µM
- TGI (SF-268 CNS): > 100 µM
- TGI (RXF-631 renal): > 100 µM

SMILES: COc1cc(Nc2nc3c(N)cc(C(F)(F)F)cc3nc2-c2ccccc2)cc(OC)c1OC
- TGI (CCRF-CEM leukemia): > 100 µM
- TGI (HCC-2998 colon): > 100 µM
- TGI (NCI-H23 lung): > 100 µM
- TGI (UO-31 renal): > 100 µM
- TGI (ACHN renal): > 100 µM
- TGI (MALME-3M melanoma): 75.9 µM
- TGI (SF-539 CNS): > 74 µM
- TGI (OVCAR-4 ovarian): 58.8 µM
- TGI (U251 CNS): > 89.2 µM
- TGI (HCT-15 colon): > 100 µM
- TGI (SW-620 colon): > 100 µM
- TGI (UACC-62 melanoma): > 92.3 µM
- TGI (SNB-19 CNS): > 91.5 µM
- TGI (HCT-116 colon): > 100 µM
- TGI (MDA-MB-231 breast): > 95.5 µM
- TGI (NCI-H522 lung): > 92 µM
- TGI (OVCAR-5 ovarian): > 100 µM
- TGI (NCI-H460 lung): > 100 µM
- TGI (HS 578T breast): > 83.6 µM
- TGI (A549 NSCLC): > 100 µM
- TGI (RPMI-8226 leukemia): > 100 µM
- TGI (LOX IMVI melanoma): > 100 µM
- TGI (OVCAR-8 ovarian): > 100 µM
- TGI (XF 498 CNS): 47.9 µM
- TGI (K-562 leukemia): > 100 µM
- TGI (KM20L2 colon): 99.9 µM
- TGI (BT-549 breast): > 83.5 µM
- TGI (SN12C renal): > 100 µM
- TGI (RXF 393 renal): 36.2 µM
- TGI (DU-145 prostate): > 100 µM
- TGI (SK-MEL-5 melanoma): 83 µM
- TGI (M19-MEL melanoma): > 100 µM
- TGI (SK-MEL-2 melanoma): > 100 µM
- TGI (UACC-257 melanoma): > 100 µM
- TGI (HL-60(TB) leukemia): > 100 µM
- TGI (CAKI-1 renal): > 100 µM
- TGI (T-47D breast): > 83 µM
- TGI (HOP-62 NSCLC): > 86.1 µM
- TGI (IGROV1 ovarian): > 100 µM
- TGI (SK-OV-3 ovarian): > 92.2 µM
- TGI (HOP-18 NSCLC): > 81 µM
- TGI (NCI-H226 lung): > 88.5 µM
- TGI (SF-295 CNS): 53.3 µM
- TGI (DMS 114 small cell lung): > 100 µM
- TGI (SK-MEL-28 melanoma): > 100 µM
- TGI (HT29 colon): > 100 µM
- TGI (MOLT-4 leukemia): > 100 µM
- TGI (LXFL 529 NSCLC): > 100 µM
- TGI (MCF7 breast): > 100 µM
- TGI (OVCAR-3 ovarian): > 100 µM
- TGI (SR leukemia): > 100 µM
- TGI (PC-3 prostate): > 89.4 µM
- TGI (COLO 205 colon): > 100 µM
- TGI (M14 melanoma): > 100 µM
- TGI (TK-10 renal): > 95.4 µM
- TGI (DMS 273 small cell lung): > 100 µM
- TGI (KM12 colon): > 100 µM
- TGI (HOP-92 NSCLC): 16.7 µM
- TGI (EKVX NSCLC): > 100 µM
- TGI (786-0 renal): 74.4 µM
- TGI (SNB-75 CNS): 53.8 µM
- TGI (A498 renal): 7.36 µM
- TGI (MDA-MB-435): > 100 µM
- TGI (MDA-N): > 100 µM
- TGI (NCI/ADR-RES ovarian): > 100 µM
- TGI (SF-268 CNS): > 100 µM
- TGI (RXF-631 renal): > 85.2 µM
